According to the supplement of paper PMC7394473:

What was measured:
Conditions in all cases: 72 h
U2OS [1] = assay: fractional viability (live cells / total cells); higher = less cell death
Description: (§1)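 U2OS::Nuc-mKate2 cells seeded in 96-well plates and treated with eight- to ten-point half-log or log dilutions of drug in the presence of 50 nM SYTOX Green. Live (mKate2+) and dead (SYTOX+) cells were counted by IncuCyte STACK live-cell microscopy at 72 h; biological triplicates. GR is the normalised growth-rate inhibition value (Hafner 2016; 1 = untreated growth, <0 = population shrinking). FV is live/(live+dead) cells, not normalised.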

U2OS [2] = assay: GRmin (fitted minimal GR value at highest effect) (GR value (dimensionless)); higher = less efficacious
Description: (§2)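 U2OS cells treated with full dose titrations of drug; live and dead cells counted by STACK microscopy (mKate2 nuclei, SYTOX Green) at 72 h, biological triplicates. GR and FV dose responses were fitted with 4-parameter logistic models (GR lower bound -1). GRADE (0-100) is the rescaled angle of a linear fit of FV versus GR at doses with GR >= 0, giving the percentage of the response due to cell death.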

U2OS [3] = assay: normalized growth rate inhibition value (GR) relative to untreated cells (GR value (dimensionless, 1 = untreated growth)); higher = less growth inhibition
Description: as §1

U2OS [4] = assay: drug GRADE (percent of response due to cell death) (% (0-100)); higher = more death-driven response
Description: as §2

U2OS [5] = assay: GR50 (concentration giving GR = 0.5)
Description: as §2

Cc1cc(C(C)Nc2ccccc2)c2nc(N3CCOCC3)cc(=O)n2c1 (centres undefined) [TGX221]
Conditions	fractional viability, U2OS [1]	normalized growth rate inhibition value, U2OS [3]
0.00100578 µM	0.988	1.1
0.00317827 µM	0.986	1.06
0.0100433 µM	0.988	1.04
0.0317369 µM	0.986	1.02
0.100289 µM	0.988	0.94
0.316912 µM	0.99	1.02
1.00144 µM	0.986	0.955
3.16456 µM	0.986	1.08
10 µM	0.977	1

Conditions	GRmin
U2OS [2]	0.951

Nc1ccc(-c2ccc3ncc4ccc(=O)n(-c5cccc(C(F)(F)F)c5)c4c3c2)cn1 [Torin2]
Conditions	fractional viability, U2OS [1]	normalized growth rate inhibition value, U2OS [3]
0.000100578 µM	0.988	0.795
0.000317827 µM	0.985	0.854
0.00100433 µM	0.986	0.924
0.00317369 µM	0.988	0.826
0.0100289 µM	0.988	0.841
0.0316912 µM	0.989	0.85
0.100144 µM	0.987	0.832
0.316456 µM	0.985	0.916
1 µM	0.971	0.523

Conditions	GRmin	drug GRADE
U2OS [2]	-0.853	–
U2OS [4]	–	4.29

CO[C@H]1C[C@@H]2CC[C@@H](C)[C@@](O)(O2)C(=O)C(=O)N2CCCC[C@H]2C(=O)O[C@H]([C@H](C)C[C@@H]2CC[C@@H](OCCO)[C@H](OC)C2)CC(=O)[C@H](C)/C=C(\C)[C@@H](O)[C@@H](OC)C(=O)[C@H](C)C[C@H](C)/C=C/C=C/C=C/1C [Everolimus]
Conditions	fractional viability, U2OS [1]	normalized growth rate inhibition value, U2OS [3]
0.00100578 µM	0.994	0.653
0.00317827 µM	0.992	0.758
0.0100433 µM	0.991	0.721
0.0317369 µM	0.994	0.653
0.100289 µM	0.993	0.738
0.316912 µM	0.994	0.79
1.00144 µM	0.989	0.598
3.16456 µM	0.99	0.524
10 µM	0.984	0.515

Conditions	GRmin	drug GRADE
U2OS [2]	-0.334	–
U2OS [4]	–	0.964

CC(C)n1nc(-c2ccc3oc(N)nc3c2)c2c(N)ncnc21 [INK-128]
Conditions	GR50 [µM]	GRmin	drug GRADE
U2OS [2]	–	0.0247	–
U2OS [4]	–	–	10.9
U2OS [5]	0.0318	–	–

Conditions	fractional viability, U2OS [1]	normalized growth rate inhibition value, U2OS [3]
0.000318058 µM	0.987	0.831
0.00100506 µM	0.989	0.849
0.003176 µM	0.989	0.896
0.0100362 µM	0.987	0.726
0.0317143 µM	0.982	0.484
0.100217 µM	0.965	0.226
0.316686 µM	0.95	0.223
1.00073 µM	0.915	0.0973
3.1623 µM	0.855	-0.0193

Cc1ccc(Nc2nccc(N(C)c3ccc4c(C)n(C)nc4c3)n2)cc1S(N)(=O)=O [Pazopanib]
Conditions	GR50 [µM]	GRmin	drug GRADE
U2OS [2]	–	0.369	–
U2OS [4]	–	–	47.8
U2OS [5]	19.9	–	–

Conditions	fractional viability, U2OS [1]	normalized growth rate inhibition value, U2OS [3]
0.01 µM	0.98	0.995
0.0316 µM	0.986	1.04
0.1 µM	0.98	1.07
0.316 µM	0.978	1
1 µM	0.979	1.04
3.16 µM	0.978	0.915
10 µM	0.917	0.68
31.6 µM	0.763	0.431

O=C(O)CCCc1ccc(N(CCCl)CCCl)cc1 [Chlorambucil]
Conditions	fractional viability, U2OS [1]	normalized growth rate inhibition value, U2OS [3]
0.01 µM	0.983	1.08
0.0316 µM	0.974	0.879
0.1 µM	0.978	1.13
0.316 µM	0.978	0.991
1 µM	0.979	0.93
3.16 µM	0.976	0.936
10 µM	0.976	0.925
31.6 µM	0.967	0.838

Conditions	GRmin
U2OS [2]	0.695

COC1CCN(C(=O)c2cc(Cc3n[nH]c(=O)c4ccccc34)ccc2F)CC1 [AZD2461]
Conditions	GR50 [µM]	GRmin	drug GRADE
U2OS [2]	–	0.0439	–
U2OS [4]	–	–	13.6
U2OS [5]	21.7	–	–

Conditions	fractional viability, U2OS [1]	normalized growth rate inhibition value, U2OS [3]
0.01 µM	0.974	1.01
0.0316 µM	0.973	0.882
0.1 µM	0.978	0.946
0.316 µM	0.975	0.923
1 µM	0.972	0.93
3.16 µM	0.97	0.849
10 µM	0.959	0.682
31.6 µM	0.919	0.407

COc1cc2nccc(Oc3ccc(NC(=O)C4(C(=O)Nc5ccc(F)cc5)CC4)cc3)c2cc1OC [Cabozantinib]
Conditions	GR50 [µM]	drug GRADE
U2OS [4]	–	9.76
U2OS [5]	2.79	–

Conditions	fractional viability, U2OS [1]	normalized growth rate inhibition value, U2OS [3]
0.00100578 µM	0.984	1.02
0.00317827 µM	0.986	0.963
0.0100433 µM	0.985	1.03
0.0317369 µM	0.981	1.07
0.100289 µM	0.979	0.938
0.316912 µM	0.977	0.954
1.00144 µM	0.968	0.843
3.16456 µM	0.917	0.443
10 µM	0.647	-0.338

CC(C)NC[C@@H](C(=O)N1CCN(c2ncnc3c2[C@H](C)C[C@H]3O)CC1)c1ccc(Cl)cc1 [Ipatasertib]
Conditions	fractional viability, U2OS [1]	normalized growth rate inhibition value, U2OS [3]
0.00100578 µM	0.99	0.9
0.00317827 µM	0.986	0.946
0.0100433 µM	0.986	1.14
0.0317369 µM	0.983	0.981
0.100289 µM	0.986	0.885
0.316912 µM	0.988	0.945
1.00144 µM	0.987	0.88
3.16456 µM	0.976	0.824
10 µM	0.947	0.548

Conditions	drug GRADE
U2OS [4]	6.49
